What was measured:
SK-OV-3 = experiment: Nonspecific cytotoxicity against human SKOV3 cells after 44 hrs by MTT assay; type: functional; conditions: SK-OV-3, 44 h
MCF7 = experiment: Nonspecific cytotoxicity against human MCF7 cells after 44 hrs by MTT assay; type: functional; conditions: MCF7, 44 h
PC-3 = experiment: Nonspecific cytotoxicity against human PC3 cells after 44 hrs by MTT assay; type: functional; conditions: PC-3, 44 h
DU-145 = experiment: Nonspecific cytotoxicity against human DU145 cells after 44 hrs by MTT assay; type: functional; conditions: DU-145, 44 h
[1] = target: T1, Kinesin-like protein KIFC3 (Homo sapiens) (UniProt Q9BVG8); experiment: Inhibition of KIFC3 (unknown origin)-mediated ATP hydrolysis assessed as residual activity at 1 uM after 10 to 20 mins by spectrophotometric analysis
T1 sequence (whole entry): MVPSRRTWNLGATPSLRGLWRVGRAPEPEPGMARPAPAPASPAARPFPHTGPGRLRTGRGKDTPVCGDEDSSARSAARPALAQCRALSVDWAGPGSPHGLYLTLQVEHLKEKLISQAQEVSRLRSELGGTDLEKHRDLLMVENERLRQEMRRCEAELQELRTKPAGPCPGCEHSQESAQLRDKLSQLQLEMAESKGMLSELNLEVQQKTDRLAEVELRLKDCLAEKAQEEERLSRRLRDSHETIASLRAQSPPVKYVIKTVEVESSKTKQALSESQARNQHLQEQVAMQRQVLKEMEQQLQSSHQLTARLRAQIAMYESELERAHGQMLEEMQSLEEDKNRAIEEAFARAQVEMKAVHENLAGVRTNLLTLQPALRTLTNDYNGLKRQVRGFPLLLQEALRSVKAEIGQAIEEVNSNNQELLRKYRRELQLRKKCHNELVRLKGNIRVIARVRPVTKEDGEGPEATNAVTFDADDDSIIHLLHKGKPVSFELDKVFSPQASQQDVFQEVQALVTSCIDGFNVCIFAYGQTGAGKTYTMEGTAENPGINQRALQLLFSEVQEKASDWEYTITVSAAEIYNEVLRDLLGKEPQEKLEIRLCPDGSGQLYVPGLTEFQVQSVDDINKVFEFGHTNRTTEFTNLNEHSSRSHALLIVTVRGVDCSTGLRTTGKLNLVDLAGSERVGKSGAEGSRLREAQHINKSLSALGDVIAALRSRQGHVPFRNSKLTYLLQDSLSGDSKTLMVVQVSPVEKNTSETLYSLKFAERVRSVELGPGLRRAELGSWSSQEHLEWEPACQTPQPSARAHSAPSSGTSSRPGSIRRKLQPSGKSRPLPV

[2] = target: T2, Kinesin-like protein KIF2C (Homo sapiens) (UniProt Q99661); experiment: Inhibition of MCAK (unknown origin)-mediated ATP hydrolysis assessed as residual activity at 1 uM after 10 to 20 mins by spectrophotometric analysis
T2 sequence (whole entry): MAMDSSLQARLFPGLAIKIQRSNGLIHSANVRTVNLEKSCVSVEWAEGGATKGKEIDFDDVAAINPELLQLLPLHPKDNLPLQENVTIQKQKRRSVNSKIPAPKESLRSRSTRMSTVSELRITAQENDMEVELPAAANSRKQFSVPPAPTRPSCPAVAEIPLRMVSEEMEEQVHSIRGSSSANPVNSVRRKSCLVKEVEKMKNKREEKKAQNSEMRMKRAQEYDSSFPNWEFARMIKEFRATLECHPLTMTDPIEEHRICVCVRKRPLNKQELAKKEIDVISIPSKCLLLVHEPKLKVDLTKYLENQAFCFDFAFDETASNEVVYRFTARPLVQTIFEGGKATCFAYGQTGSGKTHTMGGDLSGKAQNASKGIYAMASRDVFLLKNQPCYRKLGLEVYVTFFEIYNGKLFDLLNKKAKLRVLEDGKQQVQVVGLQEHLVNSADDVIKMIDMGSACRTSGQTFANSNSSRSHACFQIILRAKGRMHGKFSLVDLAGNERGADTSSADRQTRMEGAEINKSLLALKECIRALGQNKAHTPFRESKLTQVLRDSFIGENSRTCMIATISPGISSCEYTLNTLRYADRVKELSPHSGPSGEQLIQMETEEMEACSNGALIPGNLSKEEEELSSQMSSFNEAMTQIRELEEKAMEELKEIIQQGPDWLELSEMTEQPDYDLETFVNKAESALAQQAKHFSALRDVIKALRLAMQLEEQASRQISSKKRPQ

[3] = target: Centromere-associated protein E (Homo sapiens) (UniProt Q02224); experiment: Inhibition of CENP-E (unknown origin)-mediated ATP hydrolysis assessed as residual activity at 1 uM after 10 to 20 mins by spectrophotometric analysis
Centromere-associated protein E (Homo sapiens), sequence (Q02224 whole entry): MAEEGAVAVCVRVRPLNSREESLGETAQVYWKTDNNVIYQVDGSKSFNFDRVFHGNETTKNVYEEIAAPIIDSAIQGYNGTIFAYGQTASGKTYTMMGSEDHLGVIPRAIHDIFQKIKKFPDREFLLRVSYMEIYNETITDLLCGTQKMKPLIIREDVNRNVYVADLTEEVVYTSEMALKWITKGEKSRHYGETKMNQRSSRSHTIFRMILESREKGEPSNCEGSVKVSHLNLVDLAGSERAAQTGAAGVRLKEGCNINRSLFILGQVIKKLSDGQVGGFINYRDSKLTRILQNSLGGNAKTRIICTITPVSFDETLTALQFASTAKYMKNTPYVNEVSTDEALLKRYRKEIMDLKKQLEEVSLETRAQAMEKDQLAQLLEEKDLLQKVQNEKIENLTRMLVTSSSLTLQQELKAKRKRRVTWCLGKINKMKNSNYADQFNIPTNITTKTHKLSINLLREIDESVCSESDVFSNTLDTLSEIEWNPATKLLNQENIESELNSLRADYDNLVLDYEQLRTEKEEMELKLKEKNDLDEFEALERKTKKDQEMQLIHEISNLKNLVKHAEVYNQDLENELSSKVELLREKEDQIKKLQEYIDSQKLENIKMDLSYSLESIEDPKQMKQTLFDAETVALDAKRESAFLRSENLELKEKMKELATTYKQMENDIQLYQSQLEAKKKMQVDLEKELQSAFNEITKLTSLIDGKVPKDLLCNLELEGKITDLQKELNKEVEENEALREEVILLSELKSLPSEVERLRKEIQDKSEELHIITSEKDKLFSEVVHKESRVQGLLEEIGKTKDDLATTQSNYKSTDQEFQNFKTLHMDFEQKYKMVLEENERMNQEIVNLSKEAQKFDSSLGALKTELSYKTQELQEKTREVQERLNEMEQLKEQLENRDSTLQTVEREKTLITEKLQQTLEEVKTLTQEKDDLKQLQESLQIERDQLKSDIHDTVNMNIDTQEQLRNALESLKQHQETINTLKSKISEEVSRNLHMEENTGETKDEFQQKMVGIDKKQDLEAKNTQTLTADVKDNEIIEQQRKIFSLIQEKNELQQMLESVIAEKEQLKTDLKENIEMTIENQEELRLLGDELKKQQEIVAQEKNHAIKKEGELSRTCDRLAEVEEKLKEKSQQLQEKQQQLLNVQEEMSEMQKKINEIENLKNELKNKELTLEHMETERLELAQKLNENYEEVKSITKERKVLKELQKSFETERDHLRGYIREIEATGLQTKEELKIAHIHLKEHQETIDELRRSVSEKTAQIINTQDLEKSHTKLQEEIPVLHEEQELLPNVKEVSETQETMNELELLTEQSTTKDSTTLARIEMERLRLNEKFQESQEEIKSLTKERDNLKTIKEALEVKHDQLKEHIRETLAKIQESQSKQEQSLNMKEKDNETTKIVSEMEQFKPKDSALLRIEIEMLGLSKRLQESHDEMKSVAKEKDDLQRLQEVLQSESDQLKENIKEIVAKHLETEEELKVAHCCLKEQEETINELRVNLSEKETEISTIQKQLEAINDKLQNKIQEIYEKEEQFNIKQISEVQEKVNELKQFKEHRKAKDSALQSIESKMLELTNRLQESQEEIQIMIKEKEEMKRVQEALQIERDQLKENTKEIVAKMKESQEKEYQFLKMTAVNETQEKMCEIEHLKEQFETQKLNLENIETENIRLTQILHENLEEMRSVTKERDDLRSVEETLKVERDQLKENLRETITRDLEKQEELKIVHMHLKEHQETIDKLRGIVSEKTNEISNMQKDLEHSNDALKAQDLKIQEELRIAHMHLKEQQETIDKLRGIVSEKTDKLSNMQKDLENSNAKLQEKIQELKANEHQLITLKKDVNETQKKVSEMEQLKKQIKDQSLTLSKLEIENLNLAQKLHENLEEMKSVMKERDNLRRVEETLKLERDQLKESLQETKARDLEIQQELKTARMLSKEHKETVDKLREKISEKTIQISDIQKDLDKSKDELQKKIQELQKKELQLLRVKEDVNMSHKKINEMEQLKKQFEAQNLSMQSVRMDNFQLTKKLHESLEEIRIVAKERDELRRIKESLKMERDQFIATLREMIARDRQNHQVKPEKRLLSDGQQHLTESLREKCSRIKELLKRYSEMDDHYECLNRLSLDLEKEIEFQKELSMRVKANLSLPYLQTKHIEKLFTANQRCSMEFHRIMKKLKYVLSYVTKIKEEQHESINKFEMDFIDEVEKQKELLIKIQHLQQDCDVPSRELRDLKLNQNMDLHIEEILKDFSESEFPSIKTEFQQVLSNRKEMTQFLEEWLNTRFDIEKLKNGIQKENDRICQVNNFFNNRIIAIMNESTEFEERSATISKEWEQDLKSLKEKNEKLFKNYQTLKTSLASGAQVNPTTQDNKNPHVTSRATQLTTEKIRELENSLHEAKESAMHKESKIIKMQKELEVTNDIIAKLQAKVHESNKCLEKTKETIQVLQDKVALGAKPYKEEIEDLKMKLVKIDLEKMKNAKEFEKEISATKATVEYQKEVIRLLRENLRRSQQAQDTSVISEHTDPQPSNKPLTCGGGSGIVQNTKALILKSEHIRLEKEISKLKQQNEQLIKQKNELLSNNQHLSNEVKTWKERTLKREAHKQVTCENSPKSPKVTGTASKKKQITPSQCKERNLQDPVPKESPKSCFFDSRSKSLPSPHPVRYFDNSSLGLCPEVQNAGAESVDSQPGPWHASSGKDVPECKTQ

[4] = target: T3, Kinesin-like protein KIF11 (Homo sapiens) (UniProt P52732); experiment: Inhibition of KSP (unknown origin)-mediated ATP hydrolysis assessed as residual activity at 1 uM after 10 to 20 mins by spectrophotometric analysis
T3 sequence (whole entry): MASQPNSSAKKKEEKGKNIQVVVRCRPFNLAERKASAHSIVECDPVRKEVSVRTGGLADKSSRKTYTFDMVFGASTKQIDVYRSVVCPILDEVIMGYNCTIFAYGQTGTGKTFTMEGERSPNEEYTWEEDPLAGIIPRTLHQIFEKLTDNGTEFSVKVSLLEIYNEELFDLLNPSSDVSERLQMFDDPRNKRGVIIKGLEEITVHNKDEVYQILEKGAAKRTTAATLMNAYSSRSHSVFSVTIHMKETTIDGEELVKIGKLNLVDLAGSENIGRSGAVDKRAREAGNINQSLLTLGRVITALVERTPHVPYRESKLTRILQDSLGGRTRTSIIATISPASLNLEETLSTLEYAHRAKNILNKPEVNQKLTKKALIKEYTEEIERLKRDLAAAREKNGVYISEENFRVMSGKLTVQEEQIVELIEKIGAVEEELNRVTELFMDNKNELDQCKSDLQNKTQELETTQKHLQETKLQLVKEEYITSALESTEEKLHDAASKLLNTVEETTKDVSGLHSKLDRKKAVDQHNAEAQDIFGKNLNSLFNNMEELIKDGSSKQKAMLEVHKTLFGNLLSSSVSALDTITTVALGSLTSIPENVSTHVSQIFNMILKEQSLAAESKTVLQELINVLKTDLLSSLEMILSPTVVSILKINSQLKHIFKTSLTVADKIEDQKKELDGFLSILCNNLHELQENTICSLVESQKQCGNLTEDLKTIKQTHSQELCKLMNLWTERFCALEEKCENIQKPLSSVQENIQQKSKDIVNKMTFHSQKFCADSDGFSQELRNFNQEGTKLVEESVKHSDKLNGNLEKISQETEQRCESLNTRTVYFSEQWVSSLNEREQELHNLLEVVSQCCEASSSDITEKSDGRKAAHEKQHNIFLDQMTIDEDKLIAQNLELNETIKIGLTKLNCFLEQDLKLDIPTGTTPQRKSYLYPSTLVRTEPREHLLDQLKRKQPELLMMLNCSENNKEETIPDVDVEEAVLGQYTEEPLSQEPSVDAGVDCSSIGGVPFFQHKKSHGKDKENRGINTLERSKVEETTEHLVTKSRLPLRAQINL

Structure (SMILES)	GI50 (SK-OV-3)	GI50 (MCF7)	GI50 (PC-3)	GI50 (DU-145)	Activity [1]	Activity [2]	Activity [3]	Activity [4]
CC(C)[C@@H](c1nc2cc(Cl)ccc2c(=O)n1Cc1ccccc1)N(CCCN)C(=O)c1ccc(F)cc1	0.5 µM	1100 nM	1.3 µM	350 nM	98.7%	98.9%	97.4%	96.1%
Cc1ccc(C(=O)N(CCCN)[C@H](c2nc3cc(Cl)ccc3c(=O)n2Cc2ccccc2)C(C)C)cc1					97.9%	99.2%	99.1%	99.4%
CC(C)[C@H](c1nc2cc(Cl)ccc2c(=O)n1Cc1ccccc1)N(CCCN)C(=O)c1ccccc1F	5.35 µM	3000 nM	4.6 µM	5600 nM	99.4%	98.7%	99.1%	7.5%
CC(C)[C@H](c1nc2cc(Cl)ccc2c(=O)n1Cc1ccccc1)N(CCCN)C(=O)c1ccc(F)cc1	15.4 µM	2500 nM	5.1 µM	2200 nM	101%	99.2%	99.8%	2.7%
CC(C)[C@@H](c1nc2cc(Cl)ccc2c(=O)n1Cc1ccccc1)N(CCCN)C(=O)c1ccccc1F	0.85 µM	2000 nM	0.16 µM	720 nM	98.8%	98.2%	97.9%	95.9%
CC(C)[C@@H](c1nc2cc(Cl)ccc2c(=O)n1Cc1ccccc1)N(CCCN)C(=O)c1cccc(F)c1	1.1 µM	630 nM	1.8 µM	520 nM	98.9%	98.6%	100%	95.5%
CC(C)C(c1nc2cc(Cl)ccc2c(=O)n1Cc1ccccc1)N(CCCN)C(=O)c1cccc(F)c1 (racemic)	5.7 µM	2900 nM	7.6 µM	3300 nM	99.4%	96.4%	97.4%	10.1%
Cc1ccc(C(=O)N(CCCN)[C@@H](c2nc3cc(Cl)ccc3c(=O)n2Cc2ccccc2)C(C)C)cc1 [ISPINESIB]					97.3%	96.7%	98%	8.8%

Source: ChEMBL document CHEMBL2321780, “Fluorinated quinazolinones as potential radiotracers for imaging kinesin spindle protein expression” (2013)
